The results in this text go back to ChEMBL document CHEMBL1149673, “A novel approach to cyclin-dependent kinase 5/p25 inhibitors: A potential treatment for Alzheimer's disease” (Bioorg Med Chem, 2007).

For data set [1], the target named is Cyclin-dependent kinase 5/CDK5 activator 1 (Homo sapiens, UniProt Q00535). The data set can be described thus: Inhibitory activity against Cdk5/p25. In kind it is protein-complex assay.
Data set [2] can be described thus: Toxicity in Vero-C1008 cells at 6.25 to 50 ug/ml. The data set is classed as cell-based. Particulars: African green monkey; call rule not given here.
Data set [3] can be described thus: Inhibitory activity against Cdk2/cyclin E. More on the design: species or system Homo sapiens.
The species entered for data set [4] is Homo sapiens. Kind of data set: Selectivity for Cdk5/p25 over Cdk2/cyclin E.

Each structure is given as a SMILES string.

Cyclin-dependent kinase 5/CDK5 activator 1, sequence (Q00535 whole entry): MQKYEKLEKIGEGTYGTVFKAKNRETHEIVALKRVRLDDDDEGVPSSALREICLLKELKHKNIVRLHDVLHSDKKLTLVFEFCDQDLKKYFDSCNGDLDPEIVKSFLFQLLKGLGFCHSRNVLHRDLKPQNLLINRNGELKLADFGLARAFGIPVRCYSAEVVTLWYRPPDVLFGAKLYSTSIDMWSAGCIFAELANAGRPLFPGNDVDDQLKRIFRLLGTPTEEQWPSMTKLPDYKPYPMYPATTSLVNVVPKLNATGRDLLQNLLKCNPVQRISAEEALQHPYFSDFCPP
Cyclin-dependent kinase 5/CDK5 activator 1, sequence (Q15078 whole entry, further chain): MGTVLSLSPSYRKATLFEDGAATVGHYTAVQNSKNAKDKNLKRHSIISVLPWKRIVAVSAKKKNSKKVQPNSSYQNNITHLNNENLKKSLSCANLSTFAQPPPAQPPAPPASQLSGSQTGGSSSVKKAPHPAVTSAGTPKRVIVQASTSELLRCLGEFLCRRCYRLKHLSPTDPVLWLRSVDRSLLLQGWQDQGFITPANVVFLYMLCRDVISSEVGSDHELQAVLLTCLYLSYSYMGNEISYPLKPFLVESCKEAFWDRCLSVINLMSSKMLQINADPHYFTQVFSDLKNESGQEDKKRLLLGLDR

The molecule `CC(=O)Nc1cc(C)c(-c2nnc3n2NC(=O)CS3)s1` displayed a concentration for half-maximal inhibition (IC50) in data set [1] of 630 nM. The Activity entry in data set [2] was “Not Active”.
As to `CC(=O)Nc1cc(-c2ccccc2)c(-c2nnc(S)n2N)s1`, the values for the IC50 in data set [1] and in data set [3] were 54 nM and 56 nM, respectively. In data set [4], the Ratio IC50 was determined as 1. In data set [2], the Activity entry is “Not Active”.
In the case of `CC(=O)Nc1cc(C)c(-c2nnc3n2Nc2nc4ccccc4nc2S3)s1`, the IC50 came to 34 nM in data set [1] and 70 nM in data set [3]. Further, the Ratio IC50 in data set [4] amounted to 2. Besides, the Activity entry in data set [2] is “Not Active”.
`CC1=Nn2c(nnc2-c2sc(NC(=O)CCl)cc2-c2ccccc2)SC1` showed an IC50 in data set [1] of 368 nM. Besides, in data set [2], the Activity entry is listed as “Not Active”.
`Cc1cc(NC(=O)CCl)sc1-c1nnc2n1Nc1nc3ccccc3nc1S2`: the IC50 was 64 nM in data set [1] and 142 nM in data set [3]. The Ratio IC50 in data set [4] is 2.2. Also, in data set [2], the Activity entry was “Not Active”.
`CC(=O)Nc1cc(-c2ccccc2)c(-c2nnc3n2N=C(C)CS3)s1`: in data set [1], it took 448 nM to reach half-maximal inhibition (IC50). The Activity result in data set [2] is reported as “Not Active”.
The corresponding values for `Cc1cc(NC(=O)CCl)sc1-c1nnc2n1NC(=O)CS2` are 820 nM and “Not Active”.
In turn, `Cc1cc(NC(=O)CCl)sc1-c1nnc2n1N=C(c1cc(F)c(Cl)cc1Cl)/C(=C/c1ccccc1)S2` registered an IC50 in data set [1] of 3420 nM. The Activity result in data set [2] was “Not Active”.
In turn, `CC(=O)Nc1cc(C)c(-c2nnc3n2N=C(c2cc(F)c(Cl)cc2Cl)/C(=C/c2ccccc2Cl)S3)s1` had an IC50 in data set [1] of 3280 nM. In addition, the Activity entry in data set [2] was “Not Active”.
For the molecule `O=C(CCl)Nc1cc(-c2ccccc2)c(-c2nnc3n2NC(c2ccccc2)=C(c2ccccc2)S3)s1`, the figures for the half-maximal inhibitory concentration (IC50) in data set [1] and in data set [3] were 62 nM and 126 nM, respectively. In data set [4], the Ratio IC50 amounted to 2. The Activity entry in data set [2] is on record as “Not Active”.
On to `CC(=O)Nc1cc(C)c(-c2nnc3n2N=C(c2cc(F)c(Cl)cc2Cl)/C(=C/c2cccc([N+](=O)[O-])c2)S3)s1`, for which, in data set [1], inhibition was half-maximal at 3050 nM (IC50). Also, the Activity result in data set [2] is listed as “Not Active”.
In data set [1], `CC(=O)Nc1cc(C)c(-c2nnc3n2N=C(C)CS3)s1` showed an IC50 of 642 nM. For the same molecule, in data set [2], the Activity result is listed as “Not Active”.
As for `CC(=O)Nc1cc(C)c(-c2nnc3sc(=S)[nH]n23)s1`, the IC50 in data set [1] came out at 3260 nM. In data set [2], the Activity entry is recorded as “Not Active”.
On the same counts, the results for `CC(=O)Nc1cc(-c2ccccc2)c(-c2nnc3n2N=C(c2cc(F)c(Cl)cc2Cl)/C(=C/c2ccccc2)S3)s1` are 1450 nM and “Not Active”.
`Cc1cc(NC(=O)CCl)sc1-c1nnc2n1N=C(c1cc(F)c(Cl)cc1Cl)/C(=C/c1ccccc1Cl)S2` had an IC50 in data set [1] of 3340 nM. Further, the Activity result in data set [2] is “Not Active”.
On the same counts, the results for `CC(=O)Nc1cc(-c2ccccc2)c(-c2nnc3n2NC(=O)CS3)s1` are 418 nM and “Not Active”.
`O=C(CCl)Nc1cc(-c2ccccc2)c(-c2nnc3n2N=C(c2cc(F)c(Cl)cc2Cl)/C(=C/c2cccc([N+](=O)[O-])c2)S3)s1` had an IC50 in data set [1] of 2680 nM. Moreover, the Activity entry in data set [2] was “Not Active”.
For `CC(=O)Nc1cc(-c2ccccc2)c(-c2nnc3n2N=C(c2cc(F)c(Cl)cc2Cl)/C(=C/c2cccc([N+](=O)[O-])c2)S3)s1`, the half-maximal inhibitory concentration (IC50) in data set [1] is 2440 nM. Also, in data set [2], the Activity result is “Not Active”.
`O=C(CCl)Nc1cc(-c2ccccc2)c(-c2nnc3n2N=C(c2cc(F)c(Cl)cc2Cl)/C(=C/c2ccccc2)S3)s1` came in with an IC50 in data set [1] of 2490 nM. Moreover, in data set [2], the Activity entry is reported as “Not Active”.
`CC(=O)Nc1cc(C)c(-c2nnc3n2N=C(c2cc(F)c(Cl)cc2Cl)/C(=C/c2ccccc2)S3)s1` had a 50% inhibitory concentration (IC50) in data set [1] of 2370 nM. Also, the Activity entry in data set [2] is recorded as “Not Active”.
As to `CC(=O)Nc1cc(-c2ccccc2)c(-c2nnc3sc(=S)[nH]n23)s1`, in data set [1], the 50% inhibitory concentration (IC50) worked out at 2060 nM. Further, the Activity entry in data set [2] is “Not Active”.
On to `CC(=O)Nc1cc(C)c(-c2nnc3n2N=C(c2cc(F)c(Cl)cc2Cl)/C(=C/c2ccc(Cl)cc2)S3)s1`, for which the IC50 in data set [1] stood at 3390 nM. Also, the Activity result in data set [2] is reported as “Not Active”.
As for `O=C(CCl)Nc1cc(-c2ccccc2)c(-c2nnc3sc(-c4ccccc4)nn23)s1`, the 50% inhibitory concentration (IC50) in data set [1] amounted to 28 nM; in data set [3] it was 92 nM. The Ratio IC50 in data set [4] was 3.2. Besides, the Activity entry in data set [2] is “Not Active”.
The corresponding values for `Cc1cc(NC(=O)CCl)sc1-c1nnc2sc(-c3cccc([N+](=O)[O-])c3)nn12` are 53 nM, 64 nM, 1 and “Not Active”.
In data set [1], `CC(=O)Nc1cc(-c2ccccc2)c(-c2nnc3n2N=C(c2cc(F)c(Cl)cc2Cl)/C(=C/c2ccccc2Cl)S3)s1` returned a concentration for half-maximal inhibition (IC50) of 2460 nM. For the same molecule, the Activity entry in data set [2] is listed as “Not Active”.
Take `O=C(CCl)Nc1cc(-c2ccccc2)c(-c2nnc3sc(-c4cccc([N+](=O)[O-])c4)nn23)s1`: the IC50 in data set [1] came to 48 nM; in data set [3] it was 52 nM. For the same molecule, the Ratio IC50 in data set [4] was found to be 1. Further, the Activity entry in data set [2] was “Not Active”.
Regarding `CC(=O)Nc1cc(C)c(-c2nnc3n2NC(c2ccccc2)=C(c2ccccc2)S3)s1`, the IC50 in data set [1] stood at 44 nM; in data set [3] it was 89 nM. The Ratio IC50 in data set [4] was determined as 2. Besides, in data set [2], the Activity result is “Not Active”.
On the same counts, the results for `CC(=O)Nc1cc(-c2ccccc2)c(-c2nnc3sc(-c4cccc([N+](=O)[O-])c4)nn23)s1` are 60 nM, 64 nM, 1 and “Not Active”.
On to `CC(=O)Nc1cc(-c2ccccc2)c(-c2nnc3sc(-c4ccccc4)nn23)s1`, for which the figures for the 50% inhibitory concentration (IC50) in data set [1] and in data set [3] were 38 nM and 44 nM, respectively. Also, the Ratio IC50 in data set [4] came to 1.2. The Activity result in data set [2] is given as “Not Active”.
For `CC(=O)Nc1cc(C)c(-c2nnc(S)n2N)s1`, the 50% inhibitory concentration (IC50) in data set [1] turned out to be 58 nM; in data set [3], 53 nM. The Ratio IC50 in data set [4] turned out to be 1. Moreover, in data set [2], the Activity entry is recorded as “Not Active”.
Molecule `O=C(CCl)Nc1cc(-c2ccccc2)c(-c2nnc3sc(S)nn23)s1` gave an IC50 in data set [1] of 5900 nM. In data set [2], the Activity result is “Not Active”.
For `Cc1cc(NC(=O)CCl)sc1-c1nnc(S)n1N`, the values for the IC50 in data set [1] and in data set [3] were 46 nM and 49 nM, respectively. Further, the Activity entry in data set [2] is on record as “Not Active”.
`CC(=O)Nc1cc(-c2ccccc2)c(-c2nnc3n2Nc2nc4ccccc4nc2S3)s1`: the results for the IC50 in data set [1] and in data set [3] were 54 nM and 64 nM, respectively. For the same molecule, the Ratio IC50 in data set [4] amounted to 1.2. The Activity result in data set [2] is recorded as “Not Active”.
In data set [1], `CC(=O)Nc1cc(-c2ccccc2)c(-c2nnc3n2N=C(c2cc(F)c(Cl)cc2Cl)/C(=C/c2ccc(Cl)cc2)S3)s1` had an IC50 of 2480 nM. For the same molecule, the Activity entry in data set [2] was “Not Active”.
In data set [1], `O=C(CCl)Nc1cc(-c2ccccc2)c(-c2nnc3n2NC(=O)CS3)s1` registered an IC50 of 634 nM. Also, the Activity entry in data set [2] is “Not Active”.
On to `CC(=O)Nc1cc(C)c(-c2nnc3sc(-c4ccccc4)nn23)s1`, for which the figures for the IC50 in data set [1] and in data set [3] were 42 nM and 51 nM, respectively. The Ratio IC50 in data set [4] amounted to 1.2. Moreover, the Activity entry in data set [2] is “Not Active”.
For the molecule `CC(=O)Nc1cc(C)c(-c2nnc3sc(-c4cccc([N+](=O)[O-])c4)nn23)s1`, the IC50 worked out at 64 nM in data set [1] and 78 nM in data set [3]. In data set [4], the Ratio IC50 amounted to 1. For the same molecule, the Activity result in data set [2] is recorded as “Not Active”.
For `Cc1cc(NC(=O)CCl)sc1-c1nnc2sc(=S)[nH]n12`, it took 7480 nM to reach half-maximal inhibition in data set [1] (IC50). The Activity result in data set [2] is reported as “Not Active”.
Take `Nn1c(S)nnc1-c1sc(NC(=O)CCl)cc1-c1ccccc1`: the concentration for half-maximal inhibition (IC50) in data set [1] worked out at 42 nM; in data set [3], 120 nM. In data set [4], the Ratio IC50 came to 3. For the same molecule, the Activity entry in data set [2] is “Not Active”.
`Cc1cc(NC(=O)CCl)sc1-c1nnc2n1NC(c1ccccc1)=C(c1ccccc1)S2`: the IC50 in data set [1] stood at 72 nM; in data set [3] it was 154 nM. The Ratio IC50 in data set [4] was 2. In addition, the Activity entry in data set [2] is “Not Active”.
The molecule `O=C(CCl)Nc1cc(-c2ccccc2)c(-c2nnc3n2N=C(c2cc(F)c(Cl)cc2Cl)/C(=C/c2ccccc2Cl)S3)s1` showed a half-maximal inhibitory concentration (IC50) in data set [1] of 2460 nM. In data set [2], the Activity entry is on record as “Not Active”.
As for `CC(=O)Nc1cc(-c2ccccc2)c(-c2nnc3n2NC(c2ccccc2)=C(c2ccccc2)S3)s1`, the concentration for half-maximal inhibition (IC50) is 40 nM in data set [1] and 82 nM in data set [3]. Besides, the Ratio IC50 in data set [4] came out at 2. Besides, the Activity entry in data set [2] is listed as “Not Active”.
For the molecule `O=C(CCl)Nc1cc(-c2ccccc2)c(-c2nnc3n2Nc2nc4ccccc4nc2S3)s1`, the results for the IC50 in data set [1] and in data set [3] were 30 nM and 102 nM, respectively. In data set [4], the Ratio IC50 amounted to 3.2. Besides, the Activity result in data set [2] was “Not Active”.
As for `Cc1cc(NC(=O)CCl)sc1-c1nnc2sc(-c3ccccc3)nn12`, the figures for the IC50 in data set [1] and in data set [3] were 30 nM and 95 nM, respectively. In addition, the Ratio IC50 in data set [4] came out at 3.2. Moreover, the Activity result in data set [2] is given as “Not Active”.
The molecule `CC1=Nn2c(nnc2-c2sc(NC(=O)CCl)cc2C)SC1` yielded a half-inhibitory concentration (IC50) in data set [1] of 462 nM. The Activity entry in data set [2] is “Not Active”.
For `Cc1cc(NC(=O)CCl)sc1-c1nnc2n1N=C(c1cc(F)c(Cl)cc1Cl)/C(=C/c1cccc([N+](=O)[O-])c1)S2`, the IC50 in data set [1] turned out to be 3070 nM. Besides, in data set [2], the Activity entry is reported as “Not Active”.
`Cc1cc(NC(=O)CCl)sc1-c1nnc2n1N=C(c1cc(F)c(Cl)cc1Cl)/C(=C/c1ccc(Cl)cc1)S2` came in with an IC50 in data set [1] of 2970 nM. In data set [2], the Activity entry is “Not Active”.
`O=C(CCl)Nc1cc(-c2ccccc2)c(-c2nnc3n2N=C(c2cc(F)c(Cl)cc2Cl)/C(=C/c2ccc(Cl)cc2)S3)s1`: the IC50 in data set [1] is 2450 nM. Moreover, the Activity entry in data set [2] was “Not Active”.

What is called IC50 is the concentration that gives 50% inhibition.
